{
  "source": "patent US20220088016A1",
  "about": "“CANCER TREATMENT USING MULTI-TARGETED KINASE INHIBITOR IN COMBINATION OF PROTEIN KINASE BIOMARKERS” (ZHEJIANG CROWNMAB BIOTECH CO. LTD., priority 2019, published 2022)",
  "key": {"ALK": {"target": "ALK (Homo sapiens, UniProt Q9UM73)", "assay": "Kinase profiling", "type": "binding", "details": "read-out: % Ctrl @ 1000 nM"}, "[1]": {"target": "EGFR (L747-E749del, A750P) (Homo sapiens, UniProt P00533, A750P/DEL747-749)", "sequence (P00533 with tags, fused parts or gaps DEL747-749/A750P)": "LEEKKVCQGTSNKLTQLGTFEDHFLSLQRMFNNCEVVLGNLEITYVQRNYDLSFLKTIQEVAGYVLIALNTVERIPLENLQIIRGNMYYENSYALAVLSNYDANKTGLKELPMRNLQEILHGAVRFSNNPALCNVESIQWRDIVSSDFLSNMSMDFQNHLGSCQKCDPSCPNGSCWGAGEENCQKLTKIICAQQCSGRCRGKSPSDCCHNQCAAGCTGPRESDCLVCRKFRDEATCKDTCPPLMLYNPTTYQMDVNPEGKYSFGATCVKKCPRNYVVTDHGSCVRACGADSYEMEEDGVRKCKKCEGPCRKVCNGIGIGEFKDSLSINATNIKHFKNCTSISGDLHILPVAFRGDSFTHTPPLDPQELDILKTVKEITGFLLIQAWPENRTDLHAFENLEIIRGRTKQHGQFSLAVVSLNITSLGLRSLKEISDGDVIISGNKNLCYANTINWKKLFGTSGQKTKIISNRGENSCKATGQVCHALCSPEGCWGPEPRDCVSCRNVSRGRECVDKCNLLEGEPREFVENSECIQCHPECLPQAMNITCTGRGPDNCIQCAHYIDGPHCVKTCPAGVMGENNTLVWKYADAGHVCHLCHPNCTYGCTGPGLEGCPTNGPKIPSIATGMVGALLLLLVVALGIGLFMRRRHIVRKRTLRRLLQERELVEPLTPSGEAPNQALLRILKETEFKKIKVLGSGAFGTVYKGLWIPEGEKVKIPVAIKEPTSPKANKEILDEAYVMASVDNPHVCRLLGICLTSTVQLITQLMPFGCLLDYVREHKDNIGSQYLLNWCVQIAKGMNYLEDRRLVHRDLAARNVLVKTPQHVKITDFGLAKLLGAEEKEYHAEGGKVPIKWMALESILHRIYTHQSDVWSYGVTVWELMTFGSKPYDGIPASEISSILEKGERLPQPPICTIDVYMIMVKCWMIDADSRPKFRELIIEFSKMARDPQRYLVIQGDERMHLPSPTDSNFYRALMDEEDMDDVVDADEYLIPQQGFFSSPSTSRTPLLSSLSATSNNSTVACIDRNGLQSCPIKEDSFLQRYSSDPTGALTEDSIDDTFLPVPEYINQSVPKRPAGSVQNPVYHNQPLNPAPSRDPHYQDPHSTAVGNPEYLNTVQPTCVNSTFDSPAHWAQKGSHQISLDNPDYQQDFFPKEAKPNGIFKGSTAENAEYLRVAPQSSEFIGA", "assay": "Kinase profiling", "type": "binding", "details": "read-out: % Ctrl @ 1000 nM"}, "NEK3": {"target": "T1, NEK3 (Homo sapiens, UniProt P51956)", "T1 construct": "T7 phage fusion (said for most assays); made in house", "assay": "Kinase profiling", "type": "binding", "details": "read-out: % Ctrl @ 1000 nM"}, "ACVRL1": {"target": "ACVRL1 (Homo sapiens, UniProt P37023)", "sequence (P37023 22-503)": "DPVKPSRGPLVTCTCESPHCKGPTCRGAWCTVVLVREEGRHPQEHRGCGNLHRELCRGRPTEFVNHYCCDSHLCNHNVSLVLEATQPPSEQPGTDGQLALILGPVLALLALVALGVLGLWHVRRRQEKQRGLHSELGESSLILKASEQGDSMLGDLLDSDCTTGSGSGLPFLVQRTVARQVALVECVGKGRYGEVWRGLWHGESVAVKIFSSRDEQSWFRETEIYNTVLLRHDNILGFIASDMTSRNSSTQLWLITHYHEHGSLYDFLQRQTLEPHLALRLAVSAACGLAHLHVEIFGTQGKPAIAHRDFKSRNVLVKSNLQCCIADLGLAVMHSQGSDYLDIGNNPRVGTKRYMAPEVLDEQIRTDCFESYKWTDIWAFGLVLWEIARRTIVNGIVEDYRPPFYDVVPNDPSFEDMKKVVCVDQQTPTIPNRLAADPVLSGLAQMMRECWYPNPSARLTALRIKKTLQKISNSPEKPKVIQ", "assay": "Kinase profiling", "type": "binding", "details": "read-out: % Ctrl @ 1000 nM"}, "PIK3CA (H1047L)": {"target": "PIK3CA (H1047L) (Homo sapiens, UniProt P42336, H1047L)", "sequence (P42336 whole entry H1047L)": "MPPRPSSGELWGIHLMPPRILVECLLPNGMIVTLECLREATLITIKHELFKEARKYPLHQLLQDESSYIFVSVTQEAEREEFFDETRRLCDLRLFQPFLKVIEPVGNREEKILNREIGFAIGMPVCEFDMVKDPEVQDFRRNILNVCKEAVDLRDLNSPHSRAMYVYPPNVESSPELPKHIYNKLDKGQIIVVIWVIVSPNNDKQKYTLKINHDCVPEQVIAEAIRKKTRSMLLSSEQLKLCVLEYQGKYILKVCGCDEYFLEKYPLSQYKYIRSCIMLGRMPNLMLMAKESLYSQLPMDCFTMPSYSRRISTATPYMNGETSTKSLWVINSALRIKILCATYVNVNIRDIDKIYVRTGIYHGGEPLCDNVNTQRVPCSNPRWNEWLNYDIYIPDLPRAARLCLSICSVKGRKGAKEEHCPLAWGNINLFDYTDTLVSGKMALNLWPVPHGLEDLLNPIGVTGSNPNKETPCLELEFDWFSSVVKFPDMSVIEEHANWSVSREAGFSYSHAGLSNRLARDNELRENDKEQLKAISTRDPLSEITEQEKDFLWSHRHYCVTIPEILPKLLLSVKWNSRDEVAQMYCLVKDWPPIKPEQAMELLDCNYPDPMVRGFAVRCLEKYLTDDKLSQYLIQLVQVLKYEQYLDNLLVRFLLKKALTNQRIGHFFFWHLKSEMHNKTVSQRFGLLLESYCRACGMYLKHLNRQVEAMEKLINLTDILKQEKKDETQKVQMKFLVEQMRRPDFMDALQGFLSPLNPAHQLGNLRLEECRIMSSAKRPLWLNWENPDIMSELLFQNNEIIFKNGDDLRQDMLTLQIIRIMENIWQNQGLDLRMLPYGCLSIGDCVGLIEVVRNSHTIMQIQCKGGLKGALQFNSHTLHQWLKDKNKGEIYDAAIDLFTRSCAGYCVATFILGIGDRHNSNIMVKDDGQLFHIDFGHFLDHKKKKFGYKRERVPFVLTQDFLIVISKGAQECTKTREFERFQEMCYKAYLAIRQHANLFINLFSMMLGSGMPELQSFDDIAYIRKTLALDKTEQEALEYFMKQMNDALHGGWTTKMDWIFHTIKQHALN", "assay": "Kinase profiling", "type": "binding", "details": "read-out: % Ctrl @ 1000 nM"}, "PIK3CG": {"target": "PIK3CG (Homo sapiens, UniProt P48736)", "assay": "Kinase profiling", "type": "binding", "details": "read-out: % Ctrl @ 1000 nM"}, "RIPK2": {"target": "RIPK2 (Homo sapiens, UniProt O43353)", "assay": "Kinase profiling", "type": "binding", "details": "read-out: % Ctrl @ 1000 nM"}, "FLT3 (ITD)": {"test_system": "FLT3 (ITD)", "assay": "Kinase profiling", "type": "binding"}, "GCN2 (Kin.Dom.2, S808G)": {"target": "GCN2 (Kin.Dom.2, S808G) (Homo sapiens, UniProt Q9P2K8, S808G)", "assay": "Kinase profiling", "type": "binding", "details": "read-out: % Ctrl @ 1000 nM"}, "[2]": {"target": "JAK2 (JH1domain-catalytic) (Homo sapiens, UniProt O60674)", "assay": "Kinase profiling", "type": "binding", "details": "read-out: % Ctrl @ 1000 nM"}, "ERBB3": {"target": "ERBB3 (Homo sapiens, UniProt P21860)", "assay": "Kinase profiling", "type": "binding", "details": "read-out: % Ctrl @ 1000 nM"}, "TESK1": {"target": "TESK1 (Homo sapiens, UniProt Q15569)", "assay": "Kinase profiling", "type": "binding", "details": "read-out: % Ctrl @ 1000 nM"}, "IKK-beta": {"target": "IKK-beta (Homo sapiens, UniProt O14920)", "assay": "Kinase profiling", "type": "binding", "details": "read-out: % Ctrl @ 1000 nM"}, "FGR": {"target": "FGR (Homo sapiens, UniProt P09769)", "assay": "Kinase profiling", "type": "binding", "details": "read-out: % Ctrl @ 1000 nM"}, "MAK": {"target": "MAK (Homo sapiens, UniProt P20794)", "assay": "Kinase profiling", "type": "binding", "details": "read-out: % Ctrl @ 1000 nM"}, "DLK": {"target": "DLK (Homo sapiens, UniProt Q12852)", "assay": "Kinase profiling", "type": "binding", "details": "read-out: % Ctrl @ 1000 nM"}, "EPHB4": {"target": "EPHB4 (Homo sapiens, UniProt P54760)", "assay": "Kinase profiling", "type": "binding", "details": "read-out: % Ctrl @ 1000 nM"}, "JNK3": {"target": "JNK3 (Homo sapiens, UniProt P53779)", "assay": "Kinase profiling", "type": "binding", "details": "read-out: % Ctrl @ 1000 nM"}, "FLT3 (ITD, D835V)": {"test_system": "FLT3 (ITD, D835V)", "assay": "Kinase profiling", "type": "binding"}, "[3]": {"target": "JAK1 (JH2domain-pseudokinase) (Homo sapiens, UniProt P23458)", "assay": "Kinase profiling", "type": "binding", "details": "read-out: % Ctrl @ 1000 nM"}, "[4]": {"target": "ABL1 (F317L)-phosphorylated (Homo sapiens, UniProt P00519, F317L)", "sequence (P00519 whole entry F317L)": "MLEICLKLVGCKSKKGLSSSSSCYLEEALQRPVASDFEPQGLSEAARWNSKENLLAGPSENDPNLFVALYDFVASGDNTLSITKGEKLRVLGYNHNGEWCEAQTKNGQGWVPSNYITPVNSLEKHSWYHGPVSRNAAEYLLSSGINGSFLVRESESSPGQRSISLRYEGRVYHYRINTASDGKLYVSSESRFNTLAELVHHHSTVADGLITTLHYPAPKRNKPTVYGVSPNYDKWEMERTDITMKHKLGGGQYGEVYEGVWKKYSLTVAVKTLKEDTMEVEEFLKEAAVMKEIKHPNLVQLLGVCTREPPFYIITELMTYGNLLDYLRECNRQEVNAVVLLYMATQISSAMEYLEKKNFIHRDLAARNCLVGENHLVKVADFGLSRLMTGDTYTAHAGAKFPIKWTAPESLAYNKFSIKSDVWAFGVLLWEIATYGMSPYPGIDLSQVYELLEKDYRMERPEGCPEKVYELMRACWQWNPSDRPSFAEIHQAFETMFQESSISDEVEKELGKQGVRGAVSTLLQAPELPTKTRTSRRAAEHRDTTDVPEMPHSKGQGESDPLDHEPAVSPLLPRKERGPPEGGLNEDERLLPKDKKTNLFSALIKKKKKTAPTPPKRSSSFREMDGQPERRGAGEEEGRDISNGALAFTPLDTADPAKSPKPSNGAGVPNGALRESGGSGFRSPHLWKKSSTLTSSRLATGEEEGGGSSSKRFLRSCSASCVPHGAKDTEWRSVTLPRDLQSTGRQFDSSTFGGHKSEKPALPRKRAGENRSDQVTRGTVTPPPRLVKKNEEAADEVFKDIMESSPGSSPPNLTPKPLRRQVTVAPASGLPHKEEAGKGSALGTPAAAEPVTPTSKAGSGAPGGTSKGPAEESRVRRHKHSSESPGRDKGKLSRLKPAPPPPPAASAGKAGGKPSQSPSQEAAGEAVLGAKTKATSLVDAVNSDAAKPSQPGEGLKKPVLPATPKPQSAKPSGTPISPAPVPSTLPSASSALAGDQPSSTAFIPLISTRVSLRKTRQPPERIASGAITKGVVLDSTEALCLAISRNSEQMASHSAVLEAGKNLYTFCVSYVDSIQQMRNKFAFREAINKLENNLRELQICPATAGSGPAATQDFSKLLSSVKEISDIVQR", "assay": "Kinase profiling", "type": "binding", "details": "read-out: % Ctrl @ 1000 nM"}, "PFPK5 (P.falciparum)": {"target": "PFPK5 (P.falciparum) (Plasmodium falciparum, UniProt P61075)", "sequence (P61075 whole entry)": "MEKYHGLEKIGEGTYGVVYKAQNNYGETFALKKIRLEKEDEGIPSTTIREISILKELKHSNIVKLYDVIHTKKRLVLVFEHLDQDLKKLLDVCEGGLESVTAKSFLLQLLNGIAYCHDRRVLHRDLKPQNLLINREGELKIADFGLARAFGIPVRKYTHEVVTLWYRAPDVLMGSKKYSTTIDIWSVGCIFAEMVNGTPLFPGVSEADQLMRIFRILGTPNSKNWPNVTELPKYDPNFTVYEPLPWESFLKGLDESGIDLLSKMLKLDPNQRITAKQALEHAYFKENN", "assay": "Kinase profiling", "type": "binding", "details": "read-out: % Ctrl @ 1000 nM"}, "RAF1": {"target": "RAF1 (Homo sapiens, UniProt P04049)", "assay": "Kinase profiling", "type": "binding", "details": "read-out: % Ctrl @ 1000 nM"}, "BRAF": {"target": "BRAF (Homo sapiens, UniProt P15056)", "assay": "Kinase profiling", "type": "binding", "details": "read-out: % Ctrl @ 1000 nM"}, "[5]": {"target": "RSK4 (Kin.Dom.1-N-terminal) (Homo sapiens, UniProt Q9UK32)", "assay": "Kinase profiling", "type": "binding", "details": "read-out: % Ctrl @ 1000 nM"}, "M-NFS-60 cells": {"test_system": "M-NFS-60 cells", "assay": "Proliferation of M-NFS-60 cells (CTG assay)", "type": "cell-based, mouse", "details": "M-NFS-60 (CSF-1 dependent), 3 days", "experimental": "Two syngeneic cell lines M-NFS-60 and RAW264.7 and engineered BaF3 hCSFIR cell line were starved and then tested with CBT-102 and other test articles for 3 days in the temperature of 37° C., 5% CO2 and 95% humidity. The cell viability was then detected using CTG assay. The software of GraphPad Prism was used to calculate IC50.\nCSF-1 dependent mouse myeloid M-NFS-60 cells were employed as target cells while a CSF-1 independent cell line Raw 264.7 was used as a negative control. In addition to CBT-102, the study also included 3 CSF-1R inhibitors: GW2580, BLZ945 and Pexidartinib."}, "EPHB3": {"target": "EPHB3 (Homo sapiens, UniProt P54753)", "assay": "Kinase profiling", "type": "binding", "details": "read-out: % Ctrl @ 1000 nM"}, "CIT": {"target": "CIT (Homo sapiens, UniProt O14578)", "assay": "Kinase profiling", "type": "binding", "details": "read-out: % Ctrl @ 1000 nM"}, "LIMK1": {"target": "LIMK1 (Homo sapiens, UniProt P53667)", "assay": "Kinase profiling", "type": "binding", "details": "read-out: % Ctrl @ 1000 nM"}, "KIT (A829P)": {"target": "KIT (A829P) (Homo sapiens, UniProt P10721, A829P)", "assay": "Kinase profiling", "type": "binding", "details": "read-out: % Ctrl @ 1000 nM"}, "MAPKAPK2": {"target": "MAPKAPK2 (Homo sapiens, UniProt P49137)", "assay": "Kinase profiling", "type": "binding", "details": "read-out: % Ctrl @ 1000 nM"}, "NEK6": {"target": "T2, NEK6 (Homo sapiens, UniProt Q9HC98)", "T2 construct": "T7 phage fusion (said for most assays); made in house", "T2 sequence (Q9HC98 whole entry, the tested form may be a part)": "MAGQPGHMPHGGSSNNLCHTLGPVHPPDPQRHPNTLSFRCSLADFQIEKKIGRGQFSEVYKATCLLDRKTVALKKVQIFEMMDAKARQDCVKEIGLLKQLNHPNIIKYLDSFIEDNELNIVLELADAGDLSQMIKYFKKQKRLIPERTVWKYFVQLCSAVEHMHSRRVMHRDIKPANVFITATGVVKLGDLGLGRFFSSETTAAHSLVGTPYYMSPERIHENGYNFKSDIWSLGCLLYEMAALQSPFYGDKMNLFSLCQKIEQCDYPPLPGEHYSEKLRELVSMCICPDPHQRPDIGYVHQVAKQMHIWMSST", "assay": "Kinase profiling", "type": "binding", "details": "read-out: % Ctrl @ 1000 nM"}, "OSR1": {"target": "T3, OSR1 (Homo sapiens, UniProt O95747)", "T3 construct": "T7 phage fusion (said for most assays); made in house", "T3 sequence (O95747 whole entry, the tested form may be a part)": "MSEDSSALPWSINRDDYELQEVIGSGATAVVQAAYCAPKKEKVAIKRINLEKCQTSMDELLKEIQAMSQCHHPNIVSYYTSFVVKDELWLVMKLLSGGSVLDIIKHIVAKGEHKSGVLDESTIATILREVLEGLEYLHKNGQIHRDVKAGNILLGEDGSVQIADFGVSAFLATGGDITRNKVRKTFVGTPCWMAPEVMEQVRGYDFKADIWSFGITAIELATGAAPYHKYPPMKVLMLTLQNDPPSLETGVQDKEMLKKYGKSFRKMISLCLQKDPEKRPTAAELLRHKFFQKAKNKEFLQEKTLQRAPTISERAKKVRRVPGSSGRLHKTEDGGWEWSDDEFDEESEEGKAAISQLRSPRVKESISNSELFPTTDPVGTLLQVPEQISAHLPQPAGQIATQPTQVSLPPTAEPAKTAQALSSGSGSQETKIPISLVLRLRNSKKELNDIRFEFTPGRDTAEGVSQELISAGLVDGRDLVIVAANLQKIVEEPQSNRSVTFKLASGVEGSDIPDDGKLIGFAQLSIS", "assay": "Kinase profiling", "type": "binding", "details": "read-out: % Ctrl @ 1000 nM"}, "PKMYT1": {"target": "PKMYT1 (Homo sapiens, UniProt Q99640)", "assay": "Kinase profiling", "type": "binding", "details": "read-out: % Ctrl @ 1000 nM"}, "IKK-alpha": {"target": "IKK-alpha (Homo sapiens, UniProt O15111)", "assay": "Kinase profiling", "type": "binding", "details": "read-out: % Ctrl @ 1000 nM"}, "NEK1": {"target": "T4, NEK1 (Homo sapiens, UniProt Q96PY6)", "T4 construct": "T7 phage fusion (said for most assays); made in house", "assay": "Kinase profiling", "type": "binding", "details": "read-out: % Ctrl @ 1000 nM"}},
  "data": [
    {"smiles": "Cc1cc(Oc2cc(NC(=O)C3CC3)ncn2)ccc1NC(=O)Nc1ccc(Cl)c(C(F)(F)F)c1", "note": "[CBT-102]", "values": [
      {"measurement": "remaining activity at 1 µM", "setting": "ALK", "value": 100, "unit": "%"},
      {"measurement": "remaining activity at 1 µM", "setting": "[1]", "value": 80, "unit": "%"},
      {"measurement": "remaining activity at 1 µM", "setting": "NEK3", "value": 100, "unit": "%"},
      {"measurement": "remaining activity at 1 µM", "setting": "ACVRL1", "value": 67, "unit": "%"},
      {"measurement": "remaining activity at 1 µM", "setting": "PIK3CA (H1047L)", "value": 100, "unit": "%"},
      {"measurement": "remaining activity at 1 µM", "setting": "PIK3CG", "value": 100, "unit": "%"},
      {"measurement": "remaining activity at 1 µM", "setting": "RIPK2", "value": 28, "unit": "%"},
      {"measurement": "% Ctrl @ 1000 nM", "setting": "FLT3 (ITD)", "value": 18, "unit": "%"},
      {"measurement": "remaining activity at 1 µM", "setting": "GCN2 (Kin.Dom.2, S808G)", "value": 100, "unit": "%"},
      {"measurement": "remaining activity at 1 µM", "setting": "[2]", "value": 100, "unit": "%"},
      {"measurement": "remaining activity at 1 µM", "setting": "ERBB3", "value": 100, "unit": "%"},
      {"measurement": "remaining activity at 1 µM", "setting": "TESK1", "value": 100, "unit": "%"},
      {"measurement": "remaining activity at 1 µM", "setting": "IKK-beta", "value": 92, "unit": "%"},
      {"measurement": "remaining activity at 1 µM", "setting": "FGR", "value": 41, "unit": "%"},
      {"measurement": "remaining activity at 1 µM", "setting": "MAK", "value": 62, "unit": "%"},
      {"measurement": "remaining activity at 1 µM", "setting": "DLK", "value": 89, "unit": "%"},
      {"measurement": "remaining activity at 1 µM", "setting": "EPHB4", "value": 18, "unit": "%"},
      {"measurement": "remaining activity at 1 µM", "setting": "JNK3", "value": 85, "unit": "%"},
      {"measurement": "% Ctrl @ 1000 nM", "setting": "FLT3 (ITD, D835V)", "value": 98, "unit": "%"},
      {"measurement": "remaining activity at 1 µM", "setting": "[3]", "value": 100, "unit": "%"},
      {"measurement": "remaining activity at 1 µM", "setting": "[4]", "value": 52, "unit": "%"},
      {"measurement": "remaining activity at 1 µM", "setting": "PFPK5 (P.falciparum)", "value": 100, "unit": "%"},
      {"measurement": "remaining activity at 1 µM", "setting": "RAF1", "value": 3.4, "unit": "%"},
      {"measurement": "remaining activity at 1 µM", "setting": "BRAF", "value": 6.1, "unit": "%"},
      {"measurement": "remaining activity at 1 µM", "setting": "[5]", "value": 100, "unit": "%"},
      {"measurement": "IC50", "setting": "M-NFS-60 cells", "value": 343, "unit": "nM"},
      {"measurement": "IC50", "setting": "M-NFS-60 cells; Mus musculus, 72 h", "value": 631, "unit": "nM"},
      {"measurement": "remaining activity at 1 µM", "setting": "EPHB3", "value": 82, "unit": "%"},
      {"measurement": "remaining activity at 1 µM", "setting": "CIT", "value": 87, "unit": "%"},
      {"measurement": "remaining activity at 1 µM", "setting": "LIMK1", "value": 74, "unit": "%"},
      {"measurement": "remaining activity at 1 µM", "setting": "KIT (A829P)", "value": 16, "unit": "%"},
      {"measurement": "remaining activity at 1 µM", "setting": "MAPKAPK2", "value": 100, "unit": "%"},
      {"measurement": "remaining activity at 1 µM", "setting": "NEK6", "value": 100, "unit": "%"},
      {"measurement": "remaining activity at 1 µM", "setting": "OSR1", "value": 96, "unit": "%"},
      {"measurement": "remaining activity at 1 µM", "setting": "PKMYT1", "value": 97, "unit": "%"},
      {"measurement": "remaining activity at 1 µM", "setting": "IKK-alpha", "value": 93, "unit": "%"},
      {"measurement": "remaining activity at 1 µM", "setting": "NEK1", "value": 100, "unit": "%"}
    ]}
  ]
}
